According to ChEMBL document CHEMBL4017502, “Discovery and Characterization of (R)-6-Neopentyl-2-(pyridin-2-ylmethoxy)-6,7-dihydropyrimido[2,1-c][1,4]oxazin-4(9H)-one (PF-06462894), an Alkyne-Lacking Metabotropic Glutamate Receptor 5 Negative Allosteric Modulator Profiled in both Rat and Nonhuman Primates” (J Med Chem, 2017):
Values belong to the compound of their own block, whether it stands above or below them.

Experiments:
[1] = Apparent permeability across apical to basolateral side in RRCK cells at 1 uM after 2 hrs by LC/MS-MS analysis; assay type: ADME, cell-based, Canis lupus familiaris, MDCKII-LE; details: dog, MDCK
[2] = AUC (0 to 24 hrs) at steady state in cynomolgus monkey at 50 mg/kg/day, administered via oral gavage for 14 consecutive days measured on day 13; assay type: ADME, organism-based, Macaca fascicularis; parameters: time < 24 hr, dose 50 mg/kg/day, route oral; details: in vivo
[3] = AUC (0 to 24 hrs) at steady state in Crl:CD(SD) rat at 50 mg/kg/day, administered via oral gavage for 14 consecutive days measured on day 13; assay type: ADME, organism-based; parameters: dose 50 mg/kg/day, time < 24 hr, route oral; details: in vivo
Plasma [4] = experiment: Plasma concentration in human; assay type: ADME, cell-free
Plasma [5] = experiment: Drug metabolism in cynomolgus monkey plasma assessed as N-oxygenated metabolite formation at 150 mg/kg, administered via oral gavage measured on day 12 by UV-LC-MS/MS analysis; assay type: ADME, organism-based, Macaca fascicularis; details: in vivo
Plasma [6] = experiment: Drug metabolism in cynomolgus monkey plasma assessed as glucuronidated metabolite formation at 150 mg/kg, administered via oral gavage measured on day 12 by UV-LC-MS/MS analysis; assay type: ADME, organism-based, Macaca fascicularis; details: in vivo
Plasma [7] = experiment: Drug metabolism in Crl:CD(SD) rat plasma assessed as metabolite formation at 150 mg/kg, administered via oral gavage measured on day 1 by UV-LC-MS/MS analysis; assay type: ADME, organism-based; details: in vivo
Plasma [8] = experiment: Drug metabolism in cynomolgus monkey plasma assessed as monohydroxylated metabolite formation at 150 mg/kg, administered via oral gavage measured on day 12 by UV-LC-MS/MS analysis; assay type: ADME, organism-based, Macaca fascicularis; details: in vivo
[9] = Volume of distribution at steady state in cynomolgus monkey at 1 mg/kg, iv via single bolus administration; assay type: ADME, organism-based, Macaca fascicularis; details: in vivo, read-out: Vdss
Plasma [10] = experiment: Drug metabolism in cynomolgus monkey plasma assessed as metabolite formation at 150 mg/kg, administered via oral gavage measured on day 1 by UV-LC-MS/MS analysis; assay type: ADME, organism-based, Macaca fascicularis; details: in vivo
[11] = AUC (0 to 24 hrs) at steady state in cynomolgus monkey at 600 mg/kg/day, administered via oral gavage for 14 consecutive days measured on day 13; assay type: ADME, organism-based, Macaca fascicularis; parameters: dose 600 mg/kg/day, time < 24 hr, route oral; details: in vivo
[12] = AUC (0 to 24 hrs) at steady state in cynomolgus monkey at 150 mg/kg/day, administered via oral gavage for 14 consecutive days measured on day 13; assay type: ADME, organism-based, Macaca fascicularis; parameters: time < 24 hr, dose 150 mg/kg/day, route oral; details: in vivo
[13] = Ratio of unbound drug level in cynomolgus monkey brain to plasma at 600 mg/kg, po measured 7.65 hrs post dose on day 1; assay type: ADME, organism-based, Macaca fascicularis; details: read-out: K(p,uu,brain)
[14] = Ratio of free AUC (0 to 4 hrs) in Sprague-Dawley rat brain to plasma at 0.32 to 1 mg/kg, sc; assay type: ADME, organism-based
[15] = Volume of distribution at steady state in Sprague-Dawley rat at 1 mg/kg, iv via single bolus administration; assay type: ADME, organism-based; details: in vivo, read-out: Vdss
[16] = AUC (0 to 24 hrs) at steady state in Crl:CD(SD) rat at 150 mg/kg/day, administered via oral gavage for 14 consecutive days measured on day 13; assay type: ADME, organism-based; parameters: time < 24 hr, dose 150 mg/kg/day, route oral; details: in vivo
[17] = Oral bioavailability cynomolgus monkey […] at 30 mg/kg; assay type: ADME, organism-based, Macaca fascicularis; details: in vivo
[18] = AUC (0 to 24 hrs) at steady state in Crl:CD(SD) rat at 500 mg/kg/day, administered via oral gavage for 14 consecutive days measured on day 13; assay type: ADME, organism-based; parameters: dose 500 mg/kg/day, time < 24 hr, route oral; details: in vivo
[19] = Volume of distribution at steady state in 6 MPTP-treated dyskinetic PD-LID rhesus monkey at 2 mg/kg administered BID; assay type: ADME, organism-based, Macaca mulatta; details: in vivo, read-out: Vdss
[20] = Bioavailability in 6 MPTP-treated dyskinetic PD-LID rhesus monkey model at 2 mg/kg administered BID; assay type: ADME, organism-based, Macaca mulatta; details: in vivo
[21] = Oral bioavailability in Sprague-Dawley rat at 25 mg/kg; assay type: ADME, organism-based; details: in vivo
Plasma [22] = experiment: Drug metabolism in cynomolgus monkey plasma assessed as O-dealkylated metabolite formation at 150 mg/kg, administered via oral gavage measured on day 12 by UV-LC-MS/MS analysis; assay type: ADME, organism-based, Macaca fascicularis; details: in vivo

Papp A→B at 2 h, 1 µM [1]: 26 ×10⁻⁶ cm/s
SMILES: O=c1cc(SCc2ccccn2)nc2ccccn12

Papp A→B at 2 h, 1 µM [1]: 26 ×10⁻⁶ cm/s
SMILES: N#Cc1cccc(COc2cc(=O)n3c(n2)COC[C@H]3Cc2ccccc2)c1

Papp A→B at 2 h, 1 µM [1]: 22 ×10⁻⁶ cm/s
SMILES: Cc1cccc(COc2cc(=O)n3c(n2)COC[C@H]3Cc2ccccc2)n1

Papp A→B at 2 h, 1 µM [1]: 7 ×10⁻⁶ cm/s
SMILES: O=c1cc(OCc2cccc(Cl)c2)nc2ccc(Oc3cccnc3)cn12

Papp A→B at 2 h, 1 µM [1]: 26 ×10⁻⁶ cm/s
SMILES: Cc1csc(COc2cc(=O)n3c(n2)COC[C@H]3Cc2ccccc2)n1

Papp A→B at 2 h, 1 µM [1]: 26 ×10⁻⁶ cm/s
SMILES: O=c1cc(OCc2cccc(Cl)c2)nc2n1CCCC2

Papp A→B at 2 h, 1 µM [1]: 4 ×10⁻⁶ cm/s
SMILES: O=c1cc(OCc2cccc(Cl)c2)nc2n1[C@@H](Cc1ccccc1)COC2

Papp A→B at 2 h, 1 µM [1]: 28 ×10⁻⁶ cm/s
SMILES: O=c1cc(OCc2ccccn2)nc2n1[C@H](Cc1ccccc1)COC2

Papp A→B at 2 h, 1 µM [1]: 31 ×10⁻⁶ cm/s
SMILES: O=c1cc(OCc2cccc(Cl)c2)nc2n1CCOC2

Second part, the compound before the results:

SMILES: CC(C)(C)C[C@@H]1COCc2nc(OCc3ccccn3)cc(=O)n21
Papp A→B at 2 h, 1 µM [1]: 29 ×10⁻⁶ cm/s
AUC at 24 h [2]: 3680 ng·h/mL
AUC at 24 h [3]: 23200 ng·h/mL
Cp (Plasma [4]): 31 ng/mL
Drug metabolism (Plasma [5]): Metabolite_Detected
Drug metabolism (Plasma [6]): Metabolite_Detected
Drug metabolism (Plasma [7]): Metabolite_Detected
Drug metabolism (Plasma [8]): Metabolite_Detected
Vd [9]: 1.24 L/kg
Drug metabolism (Plasma [10]): Metabolite_Detected
AUC at 24 h [11]: 41500 ng·h/mL
AUC at 24 h [12]: 45400 ng·h/mL
Kp uu at 7.65 h [13]: 0.89
Kp uu [14]: 1.22
Vd [15]: 1.29 L/kg
AUC at 24 h [16]: 117000 ng·h/mL
bioavailability [17]: 11%
AUC at 24 h [18]: 313000 ng·h/mL
Vd [19]: 1 L/kg
bioavailability [20]: 91%
bioavailability [21]: 20%
Drug metabolism (Plasma [22]): Metabolite_Detected

SMILES: O=c1cc(OCc2cccc(Cl)c2)nc2n1[C@H](Cc1ccccc1)COC2
Papp A→B at 2 h, 1 µM [1]: 4 ×10⁻⁶ cm/s

SMILES: O=c1cc(OCCC2CC2)nc2n1[C@H](Cc1ccccc1)COC2
Papp A→B at 2 h, 1 µM [1]: 22 ×10⁻⁶ cm/s

SMILES: O=c1cc(OCc2cccc(Cl)c2)nc2ccccn12
Papp A→B at 2 h, 1 µM [1]: 16 ×10⁻⁶ cm/s

SMILES: CC(C)(C)C[C@@H]1COCc2nc(OCc3cccc(C#N)c3)cc(=O)n21
Papp A→B at 2 h, 1 µM [1]: 25 ×10⁻⁶ cm/s

SMILES: CC(C)C[C@@H]1COCc2nc(OCc3cccc(C#N)c3)cc(=O)n21
Papp A→B at 2 h, 1 µM [1]: 28 ×10⁻⁶ cm/s
Vd [9]: 2.23 L/kg
Kp uu [14]: 2.19
Vd [15]: 2.14 L/kg
bioavailability [17]: 43%
bioavailability [21]: 62%

SMILES: Cc1cccc(COc2cc(=O)n3cc(Oc4cccnc4)ccc3n2)n1
Papp A→B at 2 h, 1 µM [1]: 24 ×10⁻⁶ cm/s

SMILES: CC(C)C[C@@H]1COCc2nc(OCc3ccccn3)cc(=O)n21
Papp A→B at 2 h, 1 µM [1]: 39 ×10⁻⁶ cm/s
